Laboratory results: US7507766B2, “Treatment of cancers” (Pharma Mar, S.A., priority 2000, dated 2009)
“Also recorded” adds a separate entry of the source. Starred links: 1 amine or outer side, 2 acyl side, 3 side chain; linkers in the order of their positions; H or OH if unused. Positions of bridges follow the written chain, without caps; N, C: chain ends. Non-standard residues stand in square brackets, D forms with d. Residues, ends and D or L forms follow the SMILES beside them. *: point of attachment. X1 = CC[C@H](C)[C@@H](N[*:1])[C@@H](O)CC(=O)O[C@H](C(=O)[C@H](C)C(=O)[*:2])C(C)C; NMeY = CN[C@@H](Cc1ccc(O)cc1)C(=O)O; dNMeL = CN[C@H](CC(C)C)C(=O)O; Pyruvoyl = CC(=O)C(=O)*

Columns and labels:
[1] = tested on: gene (FLT1) encoding the receptor of the Vascular Endothelial Growth Factor (VEGF); test: expression of the gene FLT1; type: cell-based
VEGF protein = test: production of VEGF protein by tumour cells; type: cell-based
human bladder cancer = human bladder cancer animal models; type: in vivo; conditions: complete remissions in some animal models
[2] = stability of aplidine solution and lyophilised dosage form; conditions: heat and light stress testing
Procedure: In a currently preferred embodiment freeze-drying was performed from a […] solution of aplidine in 40% (v/v) tert-butanol in Water for Injection (Wfl) containing 25 mg/mL D-mannitol as bulking agent.

[3] = Phase I clinical studies: MTD, DLT and RD per dosing regime; type: in vivo, human
Description: The Recommended Dose (RD) is the highest dose which can be safely administered to a patient producing tolerable, manageable and reversibly toxicity according to the Common Toxicity Criteria established by the National Cancer Institute, (USA) with no more than […] patients presenting any dose limiting toxicities (DLT). Guidelines for cancer therapy frequently call for administration of chemotherapeutic agents at the highest safe dose at which toxicity is manageable in order to achieve maximum efficacy (DeVita, V. T. Jr., Hellman, S. and Rosenberg, S. A., Cancer: Principles and Practice of Oncology, 3rd ed., 1989, Lipincott, Philadelphia).
DLTs for aplidine using this method of treatment were determined in clinical studies. These studies established a recommended dose level for differing kinds of dosing protocols.

[4] = Phase I study, 24 h continuous infusion every other week: pharmacokinetics; type: in vivo, human
Procedure: A phase I and pharmacokinetic study of aplidine, given as a 24 h continuous infusion every other week in patients with solid tumours and non-Hodgkin lymphoma

[5] = Phase I studies: aplidine myotoxicity and L-carnitine as myoprotector; type: in vivo, human
Procedure: More generally, the invention involves the use of a muscle protector in conjunction with aplidine therapy. We have found in particular that carnitine is beneficial in treating myotoxicity that is associated with chemotherapy with the experimental drug aplidine. […] When L-carnitine 4.5 g/day was added to the therapy (at doses of 1.5 g three times daily), or 0.1 mg/kg (at doses of 0.033 mg 3 times daily) patients were able to tolerate doses of aplidine up to 6000 mcg/m 2 every second week. […] Therefore, muscle protectors such as L-carnitine is a useful myoprotector for patients being treated with aplidine or an aplidine analogue.
L-carnitine at a dose of 1.5 grams 3 times per day or 0.033 g/kg 3 times per day was started in all patients of study APL-A-003-98.

ornithine decarboxylase = biological target: T1, ornithine decarboxylase (Homo sapiens, UniProt P11926); conditions: all three cell lines; cited from earlier work
T1 construct: endogenous in cells; host or cells: CT-1, CT-2 and HT-29 colon carcinoma cell lines
T1 sequence (P11926 1-461): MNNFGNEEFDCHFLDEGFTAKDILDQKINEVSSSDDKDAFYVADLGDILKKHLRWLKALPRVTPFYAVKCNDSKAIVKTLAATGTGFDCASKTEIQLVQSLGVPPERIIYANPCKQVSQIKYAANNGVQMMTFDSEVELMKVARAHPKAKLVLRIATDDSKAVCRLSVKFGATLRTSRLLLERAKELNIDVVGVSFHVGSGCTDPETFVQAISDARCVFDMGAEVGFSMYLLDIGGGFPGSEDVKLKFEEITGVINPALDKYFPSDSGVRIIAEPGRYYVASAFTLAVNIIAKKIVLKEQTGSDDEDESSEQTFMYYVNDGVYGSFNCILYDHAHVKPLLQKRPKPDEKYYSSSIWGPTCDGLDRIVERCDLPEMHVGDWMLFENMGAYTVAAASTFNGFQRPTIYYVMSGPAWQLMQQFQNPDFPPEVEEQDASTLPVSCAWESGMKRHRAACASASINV

MDA-MB231 = conditions: aplidine; cited from earlier work
spermidine and spermine = conditions: cited from earlier work
cell cycle = conditions: cited from earlier work
P388 leukaemia = conditions: mice; cited from earlier work
B16 melanoma = conditions: mice; cited from earlier work
lewis lung carcinomas = conditions: mouse, in vivo; cited from earlier work
[6] = tested on: Non-small cell lung cancer, breast cancer and melanoma cell lines; conditions: cited from earlier work
CT-1 = conditions: cited from earlier work
CT-2 = conditions: cited from earlier work
human cancer xenografts = conditions: cited from earlier work

## CC[C@H](C)[C@H]1NC(=O)[C@@H](NC(=O)[C@@H](CC(C)C)N(C)C(=O)[C@@H]2CCCN2C(=O)C(C)=O)[C@@H](C)OC(=O)[C@H](Cc2ccc(OC)cc2)N(C)C(=O)[C@@H]2CCCN2C(=O)[C@H](CC(C)C)NC(=O)[C@@H](C)C(=O)[C@H](C(C)C)OC(=O)C[C@@H]1O [aplidine] (Pyruvoyl-P[dNMeL]T[X1]LP[NMeY](Me); ester 3-C)
[1]
  expression of FLT1 gene: inhibits expression
VEGF protein
  production of VEGF protein by tumour cells: severely inhibit production
Human bladder cancer
  activity on human bladder cancer: exceedingly high activity
[2]
  degradation in solution: substantial degradation
[3]; 1-hour infusion for 5 consecutive days every 3 weeks
  dose-limiting toxicity: Muscular/long; also recorded: lasting emesis
[3]; 4 Phase I trials
  dose-limiting factor: skeletal muscle toxicity
[3]; 24 hour infusion every 2 weeks, L-carnitine daily
  dose-limiting toxicity: Flu-like
[3]; weekly 24 hour infusion for 3 weeks, 1 week rest
  dose-limiting toxicity: Muscular/; also recorded: hepatic
[3]; with L-carnitine 0.1 g/kg/day in 3 portions, for Phase II studies
  RD of aplidine: 7 mg/m^2
[4]; 24 h infusion
  t ½ in the 3 patients with clear muscular toxicity: > 44 h
[4]; human, in vivo
  coefficient of variation of CL (interpatient): 62%
[4]; low sample size
  PK profile: dose-linear
[4]; preliminary compartmental analysis, 24 h infusion
  terminal phase median half-life: 25.8 h
[4]; preliminary compartmental analysis, first-order 2-compartment model
  initial phase median half-life: 0.64 h
[4]; quartiles 15.7-35.0
  t ½, median: 23.8 h
[4]; quartiles 192-415
  plasma CL, median: 252 mL/min/m^2
[4]; quartiles 274-638
  Vss, median: 413 L/m^2
[5]; 24-hour infusion, 4500 mcg/m^2 every week, then 6000 mcg/m^2 every second week
  toxicity in some subjects without L-carnitine: muscular and skeletal toxicity
[5]; 24 h every other week infusion study
  new dose-limiting factor under L-carnitine prophylaxis: non-muscular
[5]; biopsied patients
  electron microscopy of muscle, most important change: disappearance of thick filaments
[5]; every 2 weeks
  dose from which muscle cramps occur (mild cases): ≥ 3200 mcg/m2
[5]; in vivo
  onset of myotoxicity, number of infusions, median: 4 infusions
  relationship of myotoxicity to exposure: related to prolonged exposure rather than high exposure or concentrations
[5]; more severe cases
  reversible increases in creatin-kinase (CK), grade reached: ≤ 3 grade
Ornithine decarboxylase
  ornithine decarboxylase activity: decreased ornithine decarboxylase activity
MDA-MB231
  growth inhibition: 17%
Spermidine and spermine
  spermidine and spermine in treated cells: significant increase
Cell cycle
  cell cycle perturbations: did not induce any apparent cell cycle pertubations
P388 leukaemia
  activity against implanted P388 leukaemia: active
  optimal dose: 160 micro/kg
B16 melanoma
  activity against implanted B16 melanoma: active
  optimal dose: 160 micro/kg
Lewis lung carcinomas
  activity in SC implanted lewis lung carcinomas: active
[6]; continuous exposure to low concentrations, non-Hodgkin's lymphoma, melanoma, breast, ovarian, non-small cell lung cancers
  growth of tumour cell lines: inhibited the growth
[6]; continuous exposure
  concentration at which cell lines were sensitive: >= 0.001 micromol/L
CT-1
  cytotoxic activity: dose-dependent cytotoxic activity
CT-2
  cytotoxic activity: dose-dependent cytotoxic activity
CT-2; most proliferative line
  relative sensitivity among CT-1, CT-2, HT-29: most sensitive
Human cancer xenografts; 2.1 mg/kg
  remissions: near complete remissions in some animals
  treated/control (T/C) tumour ratio: 9%
Human cancer xenografts; mice
  maximum tolerated dose: 2.1 mg/kg
